The source of these data is patent US20230183218A1, “CONDENSED SUBSTITUTED HYDROPYRROLES AS ANTAGONISTS OF THE MUSCARINIC ACETYLCHOLINE RECEPTOR M4” (Vanderbilt University, priority 2020, published 2023).

Assay [1] deals with T1, Rat M4 (Rattus norvegicus, UniProt P08485).
T1 construct: expressed in transfected cells; host or cells: CHO-K1 (ATCC), stably co-expressing chimeric G protein Gqi5
T1 sequence (P08485 1-478): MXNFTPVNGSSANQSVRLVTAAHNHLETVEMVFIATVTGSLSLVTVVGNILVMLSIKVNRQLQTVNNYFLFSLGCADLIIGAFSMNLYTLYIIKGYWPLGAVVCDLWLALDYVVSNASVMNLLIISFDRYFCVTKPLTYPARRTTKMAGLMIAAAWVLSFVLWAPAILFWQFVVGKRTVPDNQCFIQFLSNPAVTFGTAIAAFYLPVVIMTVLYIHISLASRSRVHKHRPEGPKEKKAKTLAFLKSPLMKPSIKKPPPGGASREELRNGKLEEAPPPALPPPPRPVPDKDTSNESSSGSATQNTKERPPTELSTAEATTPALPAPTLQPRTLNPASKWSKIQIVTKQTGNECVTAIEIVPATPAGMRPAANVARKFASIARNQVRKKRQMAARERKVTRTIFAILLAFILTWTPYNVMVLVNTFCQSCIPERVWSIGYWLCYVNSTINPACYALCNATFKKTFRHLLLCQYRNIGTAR
Description: mAChR M4 cell-based functional assay (calcium flux, antagonist mode vs EC80 acetylcholine), rat M4/Gqi5/CHO-K1 cells. The settings on record: for remaining activity at 30 µM: CHO-K1, read-out: Rat M4 Emin (%); for IC50: decrease of response elicited by EC80 acetylcholine, rat M4/Gqi5 CHO-K1 cells. A digest of the protocol: (§1)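 CHO-K1 cells stably expressing human or rat M4 with Gqi5, Fluo-4 loaded; calcium measured by fluorescence ratio on FDSS. Compound added, then EC20 acetylcholine at 143 s and EC80 at 268 s; IC50 from decrease of EC80 response, four-parameter logistic fit.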

Assay [2] deals with T2, Human M4 (Homo sapiens, UniProt P08173).
T2 construct: expressed in transfected cells; host or cells: CHO-K1 (ATCC), stably co-expressing chimeric G protein Gqi5
T2 sequence (P08173 1-479): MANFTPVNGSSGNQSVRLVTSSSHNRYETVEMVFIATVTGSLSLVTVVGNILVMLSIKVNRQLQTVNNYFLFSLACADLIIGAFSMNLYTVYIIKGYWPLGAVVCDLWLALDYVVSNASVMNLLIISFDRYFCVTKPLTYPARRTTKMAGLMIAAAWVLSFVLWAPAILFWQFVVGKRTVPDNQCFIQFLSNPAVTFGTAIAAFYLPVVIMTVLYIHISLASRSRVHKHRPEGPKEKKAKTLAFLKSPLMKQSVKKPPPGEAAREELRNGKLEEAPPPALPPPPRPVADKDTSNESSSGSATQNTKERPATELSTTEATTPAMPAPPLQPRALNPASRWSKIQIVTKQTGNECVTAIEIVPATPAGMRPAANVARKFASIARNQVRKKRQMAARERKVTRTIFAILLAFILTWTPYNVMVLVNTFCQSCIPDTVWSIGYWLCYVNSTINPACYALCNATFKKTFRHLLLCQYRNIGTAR
Description: mAChR M4 cell-based functional assay (calcium flux, antagonist mode vs EC80 acetylcholine), human M4/Gqi5/CHO-K1 cells. Conditions: for remaining activity at 30 µM: CHO-K1, read-out: Human M4 Emin (%); for IC50: decrease of response elicited by EC80 acetylcholine, human M4/Gqi5 CHO-K1 cells. A digest of the protocol: as §1

The mark [3] stands for this setting: % ACh maximum at 30 μM, human M4.

Take `CC1(C)CC(N2C[C@H]3C[C@H](Nc4ccc(-c5ccc(F)cc5)nn4)C[C@H]3C2)CCO1` (stereo partly drawn) [compound 54, (3aR,5s,6aS)-2-(2,2-dimethyltetrahydro-2H-pyran-4-yl)-N-(6-(4-fluorophenyl)pyridazin-3-yl)octahydrocyclopenta[c]pyrrol-5-amine]: the remaining activity at 30 µM in assay [1] (% ACh maximum at 30 μM, rat M4) turned out to be 5%; in assay [2] (setting [3]), 3%. In addition, the IC50 in assay [1] stood at 534 nM; in assay [2], 32.9 nM.
Consider `CC1(C)CC(N2C[C@H]3C[C@H](Nc4ccc(-c5cc(F)ccc5F)nn4)C[C@H]3C2)CCO1` (stereo partly drawn) [compound 55, (3aR,5s,6aS)-N-(6-(2,5-difluorophenyl)pyridazin-3-yl)-2-(2,2-dimethyltetrahydro-2H-pyran-4-yl)octahydrocyclopenta[c]pyrrol-5-amine], for which the remaining activity at 30 µM is 5% in assay [1] (% ACh maximum at 30 μM, rat M4) and 3% in assay [2] (setting [3]). Further, the IC50 turned out to be 425 nM in assay [1] and 13.5 nM in assay [2].
For `CC1(C)CC(N2C[C@H]3C[C@H](Nc4ccc(-c5cccnc5)nn4)C[C@H]3C2)CCO1` (stereo partly drawn) [compound 56, (3aR,5s,6aS)-2-(2,2-dimethyltetrahydro-2H-pyran-4-yl)-N-(6-(pyridin-3-yl)pyridazin-3-yl)octahydrocyclopenta[c]pyrrol-5-amine] the same measures were 14%, 4%, 7250 nM and 37.7 nM.
As to `Cc1cnn(C)c1-c1ccc(N[C@H]2C[C@@H]3CN(C4CCOC(C)(C)C4)C[C@@H]3C2)nn1` (stereo partly drawn) [compound 57, (3aR,5s,6aS)-N-(6-(1,4-dimethyl-1H-pyrazol-5-yl)pyridazin-3-yl)-2-(2,2-dimethyltetrahydro-2H-pyran-4-yl)octahydrocyclopenta[c]pyrrol-5-amine], the remaining activity at 30 µM in assay [1] (% ACh maximum at 30 μM, rat M4) came to 9%; in assay [2] (setting [3]) it was 2%. In addition, the IC50 in assay [1] came to 2030 nM; in assay [2], 28.9 nM.
With `CC1(C)CC(N2C[C@H]3C[C@H](Nc4ccc(N5CCC(F)(F)CC5)nn4)C[C@H]3C2)CCO1` (stereo partly drawn) [compound 58, (3aR,5s,6aS)-N-(6-(4,4-difluoropiperidin-1-yl)pyridazin-3-yl)-2-(2,2-dimethyltetrahydro-2H-pyran-4-yl)octahydrocyclopenta[c]pyrrol-5-amine], the remaining activity at 30 µM in assay [1] (% ACh maximum at 30 μM, rat M4) came to 6%; in assay [2] (setting [3]), 3%. Besides, the IC50 in assay [1] was 506 nM; in assay [2], 29.8 nM.
The matching figures for `CC(=O)Nc1ccc(-c2ccc(N[C@H]3C[C@@H]4CN(C5CCOC(C)(C)C5)C[C@@H]4C3)nn2)cn1` (stereo partly drawn) [compound 59, N-(5-(6-(((3aR,5s,6aS)-2-(2,2-dimethyltetrahydro-2H-pyran-4-yl)octahydrocyclopenta[c]pyrrol-5-yl)amino)pyridazin-3-yl)pyridin-2-yl)acetamide]: 6%, 4%, 319 nM and 76.1 nM.
For `CC1(C)CC(N2C[C@H]3C[C@H](Nc4ccc(N5CCOCC5)nn4)C[C@H]3C2)CCO1` (stereo partly drawn) [compound 60, (3aR,5s,6aS)-2-(2,2-dimethyltetrahydro-2H-pyran-4-yl)-N-(6-morpholinopyridazin-3-yl)octahydrocyclopenta[c]pyrrol-5-amine] the same measures were 14%, 5%, 5170 nM and 49.4 nM.
The matching figures for `Cn1cc2cc(-c3ccc(N[C@H]4C[C@@H]5CN(C6CCOCC6)C[C@@H]5C4)nn3)ccc2n1` [compound 62, (3aR,5s,6aS)-N-(6-(2-methyl-2H-indazol-5-yl)pyridazin-3-yl)-2-(tetrahydro-2H-pyran-4-yl)octahydrocyclopenta[c]pyrrol-5-amine]: 11%, 9%, 2130 nM and 1730 nM.
Take `Cn1cc2cc(-c3ccc(N[C@H]4C[C@@H]5CN(C6CCOC(C)(C)C6)C[C@@H]5C4)nn3)ccc2n1` (stereo partly drawn) [compound 63, (3aR,5s,6aS)-2-(2,2-dimethyltetrahydro-2H-pyran-4-yl)-N-(6-(2-methyl-2H-indazol-5-yl)pyridazin-3-yl)octahydrocyclopenta[c]pyrrol-5-amine]: the remaining activity at 30 µM in assay [1] (% ACh maximum at 30 μM, rat M4) is 5%; in assay [2] (setting [3]), 3%. The IC50 in assay [1] was 374 nM; in assay [2], 9.53 nM.
For `Fc1ccc(Cl)c(-c2ccc(N[C@H]3C[C@@H]4CN(C5(C6CCOCC6)CC5)C[C@@H]4C3)nn2)c1` [compound 64, (3aR,5s,6aS)-N-(6-(2-chloro-5-fluorophenyl)pyridazin-3-yl)-2-(1-(tetrahydro-2H-pyran-4-yl)cyclopropyl)octahydrocyclopenta[c]pyrrol-5-amine] the same measures were 32%, 4%, more than 10000 nM and 161 nM.
Consider `CC1(C)CC(N2C[C@H]3C[C@H](Nc4ccc([S+]([O-])c5ccccc5)nn4)C[C@H]3C2)CCO1` (stereo partly drawn) [compound 65, (3aR,5s,6aS)-2-(2,2-dimethyltetrahydro-2H-pyran-4-yl)-N-(6-(phenylsulfinyl)pyridazin-3-yl)octahydrocyclopenta[c]pyrrol-5-amine], for which the remaining activity at 30 µM in assay [1] (% ACh maximum at 30 μM, rat M4) was determined as 10%; in assay [2] (setting [3]), 5%.
`CC1(C)CC(N2C[C@H]3C[C@H](Nc4ccc(S(=O)(=O)C5CCCCC5)nn4)C[C@H]3C2)CCO1` (stereo partly drawn) [compound 66, (3aR,5s,6aS)-N-(6-(cyclohexylsulfonyl)pyridazin-3-yl)-2-(2,2-dimethyltetrahydro-2H-pyran-4-yl)octahydrocyclopenta[c]pyrrol-5-amine]: in assay [1] (% ACh maximum at 30 μM, rat M4), the “Rat M4 Emin (%)” value was determined as 7%. Also, the IC50 in assay [1] came out at 460 nM. Also, the “Human M4 Emin (%)” value in assay [2] (setting [3]) came to 5%.
For `Fc1ccc(Cl)c(-c2ccc(N[C@H]3C[C@@H]4CN(C5CCC(F)(F)CC5)C[C@@H]4C3)nn2)c1` [compound 67, (3aR,5s,6aS)-N-(6-(2-chloro-5-fluorophenyl)pyridazin-3-yl)-2-(4,4-difluorocyclohexyl)octahydrocyclopenta[c]pyrrol-5-amine], the remaining activity at 30 µM in assay [1] (% ACh maximum at 30 μM, rat M4) came to 13%; in assay [2] (setting [3]), 4%. Moreover, the values for the IC50 in assay [1] and in assay [2] were 436 nM and 2.42 nM, respectively.
For `CC1(C)CCC(N2C[C@H]3C[C@H](Nc4ccc(-c5cc(F)ccc5Cl)nn4)C[C@H]3C2)CC1` [compound 68, (3aR,5s,6aS)-N-(6-(2-chloro-5-fluorophenyl)pyridazin-3-yl)-2-(4,4-dimethylcyclohexyl)octahydrocyclopenta[c]pyrrol-5-amine] the same measures were 2%, 3%, 102 nM and 2.79 nM.
For `Fc1ccc(Cl)c(-c2ccc(N[C@H]3C[C@@H]4CN(C5CC6(COC6)C5)C[C@@H]4C3)nn2)c1` [compound 69, (3aR,5s,6aS)-N-(6-(2-chloro-5-fluorophenyl)pyridazin-3-yl)-2-(2-oxaspiro[3.3]heptan-6-yl)octahydrocyclopenta[c]pyrrol-5-amine] the same measures were 17%, 4%, 905 nM and 11.8 nM.
The matching figures for `CC1(C)C(=O)N(C2CC2)c2nnc(N[C@H]3C[C@@H]4CN(CC5CCOCC5)C[C@@H]4C3)cc21` [compound 70, 7-cyclopropyl-5,5-dimethyl-3-(((3aR,5s,6aS)-2-((tetrahydro-2H-pyran-4-yl)methyl)octahydrocyclopenta[c]pyrrol-5-yl)amino)-5,7-dihydro-6H-pyrrolo [2,3-c]pyridazin-6-one]: 13%, 4%, 3970 nM and 12.8 nM.
